Test results from ChEMBL document CHEMBL1134533, “Design, synthesis, computational prediction, and biological evaluation of ester soft drugs as inhibitors of dihydrofolate reductase from Pneumocystis carinii” (J Med Chem, 2001).

Columns and labels:
Dihydrofolate reductase [1] = molecular target: T1, Dihydrofolate reductase (Rattus norvegicus, UniProt Q920D2)
T1 sequence (Q920D2 whole entry): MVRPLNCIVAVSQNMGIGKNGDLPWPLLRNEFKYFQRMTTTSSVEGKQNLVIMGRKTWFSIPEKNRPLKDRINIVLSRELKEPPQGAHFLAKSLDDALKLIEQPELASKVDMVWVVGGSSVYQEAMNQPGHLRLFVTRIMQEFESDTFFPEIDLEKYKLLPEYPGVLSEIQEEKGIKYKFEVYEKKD
Description: Inhibitory concentration against dihydrofolate reductase DHFR from rat liver.

[2] = molecular target: T2, Bifunctional dihydrofolate reductase-thymidylate synthase (Toxoplasma gondii, UniProt Q07422)
T2 sequence (Q07422 whole entry): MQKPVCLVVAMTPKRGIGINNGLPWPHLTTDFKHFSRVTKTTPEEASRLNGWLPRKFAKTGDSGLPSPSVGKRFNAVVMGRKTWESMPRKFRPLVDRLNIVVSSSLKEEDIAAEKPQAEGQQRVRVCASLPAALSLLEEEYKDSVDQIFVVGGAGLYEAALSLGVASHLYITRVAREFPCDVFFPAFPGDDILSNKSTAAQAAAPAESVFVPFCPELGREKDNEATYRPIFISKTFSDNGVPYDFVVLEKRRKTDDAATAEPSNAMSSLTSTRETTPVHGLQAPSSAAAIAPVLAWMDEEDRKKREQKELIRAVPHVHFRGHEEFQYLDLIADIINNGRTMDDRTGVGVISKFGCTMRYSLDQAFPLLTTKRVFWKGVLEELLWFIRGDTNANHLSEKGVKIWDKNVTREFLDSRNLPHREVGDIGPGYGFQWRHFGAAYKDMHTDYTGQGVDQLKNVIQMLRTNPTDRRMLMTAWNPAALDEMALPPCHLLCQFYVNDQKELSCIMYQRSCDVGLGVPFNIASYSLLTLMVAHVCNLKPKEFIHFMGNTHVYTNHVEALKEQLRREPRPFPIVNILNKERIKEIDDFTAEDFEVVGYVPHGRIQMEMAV
Description: Inhibitory concentration against dihydrofolate reductase DHFR from Toxoplasma gondii

Dihydrofolate reductase [3] = molecular target: T3, Dihydrofolate reductase (Pneumocystis carinii, UniProt P16184)
T3 sequence (P16184 whole entry): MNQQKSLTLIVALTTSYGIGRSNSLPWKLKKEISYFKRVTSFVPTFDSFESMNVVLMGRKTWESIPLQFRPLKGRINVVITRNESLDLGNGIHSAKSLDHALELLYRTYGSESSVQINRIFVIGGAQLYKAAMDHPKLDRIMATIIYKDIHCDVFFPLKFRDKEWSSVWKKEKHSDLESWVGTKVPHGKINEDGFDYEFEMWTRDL
Description: Inhibitory concentration against dihydrofolate reductase dihydrofolate reductase from Pneumocystis carinii.

[4] = molecular target: T4, Dihydrofolate reductase (Rattus norvegicus) (UniProt Q920D2); test: Inhibitory activity against dihydrofolate reductase DHFR from rat liver at 32 uM concentration
T4 sequence (whole entry): T1 sequence (Q920D2 whole entry)

[5] = molecular target: T5, Dihydrofolate reductase (Pneumocystis carinii) (UniProt P16184); test: Inhibitory activity against dihydrofolate reductase dihydrofolate reductase from Pneumocystis carinii. at 32 uM concentration
T5 sequence (whole entry): T3 sequence (P16184 whole entry)

[6] = molecular target: T6, Bifunctional dihydrofolate reductase-thymidylate synthase (Toxoplasma gondii) (UniProt Q07422); test: Inhibitory activity against dihydrofolate reductase DHFR from Toxoplasma gondii at 32 uM concentration
T6 sequence (whole entry): T2 sequence (Q07422 whole entry)

[7] = molecular target: T6, Bifunctional dihydrofolate reductase-thymidylate synthase (Toxoplasma gondii); test: Relative activity against dihydrofolate reductase DHFR from Toxoplasma gondii
[8] = Ratio of the IC50 values for rlDHFR of the metabolite and pcDHFR of the soft drug
[9] = molecular target: T4, Dihydrofolate reductase (Rattus norvegicus); test: Inhibitory activity against dihydrofolate reductase DHFR from rat liver at 104 uM concentration
[10] = molecular target: T5, Dihydrofolate reductase (Pneumocystis carinii); test: Inhibitory activity against dihydrofolate reductase dihydrofolate reductase from Pneumocystis carinii. at 104 uM concentration
[11] = molecular target: T6, Bifunctional dihydrofolate reductase-thymidylate synthase (Toxoplasma gondii); test: Inhibitory activity against dihydrofolate reductase DHFR from Toxoplasma gondii at 104 uM concentration
[12] = molecular target: T4, Dihydrofolate reductase (Rattus norvegicus); test: Inhibitory activity against dihydrofolate reductase DHFR from rat liver at 51 uM concentration
[13] = molecular target: T5, Dihydrofolate reductase (Pneumocystis carinii); test: Inhibitory activity against dihydrofolate reductase dihydrofolate reductase from Pneumocystis carinii. at 51 uM concentration
[14] = molecular target: T6, Bifunctional dihydrofolate reductase-thymidylate synthase (Toxoplasma gondii); test: Inhibitory activity against dihydrofolate reductase DHFR from Toxoplasma gondii at 51 uM concentration

Compound	IC50 (Dihydrofolate reductase [1]) [nM]	IC50 [2] [nM]	IC50 (Dihydrofolate reductase [3]) [nM]	further results
COc1cc(NCc2ccc3nc(N)nc(N)c3c2C)cc(OC)c1OC [TRIMETREXATE]	8			
Nc1nc(N)c2cc(COC(=O)Cc3ccccc3)ccc2n1	2300	1900		
COc1ccc(C(=O)OCc2ccc3nc(N)nc(N)c3c2)cc1OC	110	66	510	
Nc1nc(N)c2cc(/C=C/C(=O)Oc3ccccc3)ccc2n1	1290	189		
COc1ccc(C(=O)OCc2ccc3nc(N)nc(N)c3c2)c(OC)c1OC	500	140	1400	
Nc1nc(N)c2cc(C(=O)O)ccc2n1				inhibition [4]: 3%; inhibition [5]: 11%; inhibition [6]: 16%
Nc1nc(N)c2cc(COC(=O)c3ccccc3)ccc2n1	390	99	600	Relative IC50 [7]: 3.9; Ratio [8]: 67
COc1ccc(OC)c(Cc2cnc3nc(N)nc(N)c3c2C)c1 [PIRITREXIM]	4.4			
COc1cc(C(=O)OCc2ccc3nc(N)nc(N)c3c2)cc(OC)c1OC	26	50	560	Relative IC50 [7]: 0.51
COc1cc(OC)cc(C(=O)OCc2ccc3nc(N)nc(N)c3c2)c1	350	150	460	
Nc1nc(N)c2cc(CNc3ccccc3)ccc2n1	440	100	980	
Nc1nc(N)c2cc(COC(=O)c3ccccc3)cnc2n1	3900	1900	5450	
Nc1nc(N)c2cc(COC(=O)c3ccc(C(=O)O)cc3)ccc2n1		1000	1000	
Cc1c(COC(=O)c2ccccc2)cnc2nc(N)nc(N)c12	230	56	250	Ratio [8]: 33
Nc1nc(N)c2nc(COC(=O)c3ccccc3)cnc2n1	7000	5800	9800	
CN(Cc1ccc2nc(N)nc(N)c2c1)c1ccccc1	69	11	96	
Nc1nc(N)c2cc(CO)cnc2n1				inhibition [9]: 19%; inhibition [10]: 17%; inhibition [11]: 9%
COc1ccc(OC)c(C(=O)OCc2ccc3nc(N)nc(N)c3c2)c1	420	220	2400	
Nc1nc(N)c2cc(C(=O)OCc3ccccc3)ccc2n1	420	360	2500	Relative IC50 [7]: 1.2
Cc1c(CO)cnc2nc(N)nc(N)c12	8500	3200		
Nc1nc(N)c2nc(CO)cnc2n1				inhibition [12]: 2%; inhibition [13]: 10%; inhibition [14]: 12%
Nc1nc(N)c2cc(CO)ccc2n1	40300	44900		
